According to PubChem BioAssay AID1996:
≈ marks a conversion by molar mass, not a printed value.

Settings: buffer; pH 7.4; 200.0 µM

Structure (SMILES) | solubility kinetic
N#C/C(=C\c1cccnc1)c1ccccn1 | > 31.1 µg/mL
CN(CCO)CCOCCOc1cccc2ccccc12 | 34.6 µg/mL (≈ 120 µM)
COc1ccc(/C=C/c2ccc3cccc(O)c3n2)cc1Br | < 0.8 µg/mL
COc1cccc(N(CC(=O)N2CCCC2)S(C)(=O)=O)c1 | > 46.9 µg/mL
CCNC(=O)COc1cc(C)c(Br)c(C)c1 | > 42.9 µg/mL
COc1ccccc1NC(=S)N1CCn2cccc2C1c1cccnc1 (stereo not given) | 42.2 µg/mL (≈ 116 µM)
Cc1nc2ccc(NC(=O)c3ccc4ccccc4n3)cc2s1 | < 0.2 µg/mL
CC(C)c1ccc(Nc2nc(Cl)nc(NCCO)n2)cc1 | 2.7 µg/mL (≈ 8.77 µM)
Cl.O=C(CN1CCCCC1)NC1CCc2cc3c(cc21)CCC3 (stereo not given) | 45.6 µg/mL
Cc1ccc(N=C2NC(=O)/C(=C/c3cccnc3)S2)c(C)c1 | 4.8 µg/mL (≈ 15.5 µM)
COc1ccc(OCC(=O)Nc2ccc3c(c2)C(=O)NC3=O)cc1 | 2.4 µg/mL (≈ 7.36 µM)
O=C(c1cc(-c2ccc(Cl)cc2)on1)N1CCCC1 | 1.4 µg/mL (≈ 5.06 µM)
CC(C)C(NC(=O)c1ccccc1F)C(=O)NCCCn1ccnc1 (stereo not given) | > 52 µg/mL
Fc1cccc(Cl)c1CSC1=NCCS1 | 2.3 µg/mL (≈ 8.79 µM)
c1ccc(-c2nc(-c3ccc(-c4ccon4)s3)no2)cc1 | 0.6 µg/mL (≈ 2.03 µM)
Cc1cccc(NS(=O)(=O)Cc2ccccc2)c1C | 35.6 µg/mL (≈ 129 µM)
Cc1ccc(C)c(CN2C(=O)NC3(CCCCCC3)C2=O)c1 | 3.7 µg/mL (≈ 12.3 µM)
O=C(O)Cn1c(=O)c2cccn2c2ccccc21 | > 36.3 µg/mL
NC(=O)C1CCN(C(=O)c2cc3ccccc3cc2O)CC1 | > 44.8 µg/mL
O=C(Nc1ccc(F)c(Cl)c1)c1nsc(Cl)c1Cl | 0.7 µg/mL (≈ 2.15 µM)

Structure (SMILES) | solubility kinetic
COc1ccc(C2(CNS(=O)(=O)c3ccccc3)CCOCC2)cc1 | 46.6 µg/mL (≈ 129 µM)
Cc1ccc(NC(=O)COC(=O)CCNS(=O)(=O)c2c(Cl)cccc2Cl)cc1 | 48.5 µg/mL (≈ 109 µM)
Fc1ccc(C2CCCN2Cc2nc(Cc3ccccc3F)no2)cc1 (stereo not given) | 11.6 µg/mL (≈ 32.6 µM)
COc1ccccc1NC(=O)C(=O)/C=C(\O)c1ccccc1 | 10.8 µg/mL (≈ 36.3 µM)
CCOC(=O)C1=C(c2ccc(O)cc2)NC(=O)NC1C (stereo not given) | 37 µg/mL (≈ 134 µM)
CSCc1ccc(C(=O)Nc2ccc(C(N)=O)cc2)cc1 | 0.8 µg/mL (≈ 2.66 µM)
O=C(/C=C/c1cccs1)N1CCCC1 | > 31.1 µg/mL
O=C(COC(=O)CC1CC2CCC1C2)Nc1ccc(F)cc1Cl (stereo not given) | 13.2 µg/mL (≈ 38.8 µM)
Cc1cc(C)cc(OCC(=O)OCC(=O)NC2CC2)c1 | > 41.6 µg/mL
COC(=O)c1nn(-c2ccc(C)cc2)ccc1=O | > 36.6 µg/mL
O=C(Nc1c[nH]c(=O)[nH]c1=O)c1cccc(F)c1 | 12.2 µg/mL (≈ 49 µM)
COc1ccc(C(=O)C2CCCN(CCO)C2)c(C)c1 (stereo not given) | 30.3 µg/mL (≈ 109 µM)
Cc1ccc(Oc2nc3c(c(=O)n(C)c(=O)n3C)n2C)cc1C | 40 µg/mL (≈ 127 µM)
O=S(=O)(Nc1ccncc1Cl)c1cc(Cl)ccc1Cl | > 50.6 µg/mL
O=C(NCN1CCN(c2ccccc2)CC1)c1cnccn1 | > 44.6 µg/mL
O=C(NC(=S)Nc1ccccc1Br)C1CCC1 | 7.8 µg/mL (≈ 24.9 µM)
CCOc1ccc(NC(=O)CCN2C(=O)c3cccc([N+](=O)[O-])c3C2=O)cc1 | 16.4 µg/mL (≈ 42.8 µM)
Cc1cc(C)cc(N2CC(C)Cn3c2nc2c3c(=O)[nH]c(=O)n2C)c1 (stereo not given) | 13 µg/mL (≈ 38.3 µM)
C=CCn1c(SCC(C)=O)nc2sc3c(c2c1=O)CCC3 | 4.6 µg/mL (≈ 14.4 µM)
O=C(CSc1nc2ccccc2c(=O)n1CCCN1CCOCC1)Nc1ccc(F)c(Cl)c1 | 18.5 µg/mL (≈ 37.7 µM)

Structure (SMILES) | solubility kinetic
O=C(Nc1ccc(N2CCCC2)cc1)c1ccc(Cl)cc1Cl | 0.5 µg/mL (≈ 1.49 µM)
CCCc1cc(=O)[nH]c(SCC(=O)Nc2cc(C)on2)n1 | > 46.3 µg/mL
CC(C)(CC(=O)O)CC(=O)Nc1ccc(Oc2ccc(C(C)(C)C)cc2)nc1 | > 57.7 µg/mL
CCOc1ccc(C(C)NC(=O)c2cccs2)cc1OCC (stereo not given) | 11.1 µg/mL (≈ 34.7 µM)
O=C1CCC(=O)N1c1ccccc1 | > 26.3 µg/mL
COc1cc(OC)cc(C(=O)NCCNC(=O)c2ccccn2)c1 | > 49.4 µg/mL
Cn1ccsc1=NC(=O)c1ccc(OC(F)(F)F)cc1 | 9.3 µg/mL (≈ 30.8 µM)
C=CCNC(=S)N1CCC(C(=O)c2ccc(F)cc2)CC1 | > 46 µg/mL
Cn1c(SCC#N)nc2ccccc2c1=O | 30.2 µg/mL (≈ 131 µM)
CCOC(=O)CC1C(=O)NCCN1S(=O)(=O)c1ccc(C)cc1 (stereo not given) | > 51.1 µg/mL
O=C(NCCCN1CCCC1=O)c1cc2ccccc2o1 | > 42.9 µg/mL
O=S(=O)(NCCOc1ccccc1F)c1ccc(Cl)cc1F | 5.7 µg/mL (≈ 16.4 µM)
COc1ccc(Br)cc1CN(C)C(=O)C1=CC=CN2CCS(=O)(=O)N=C12 | 43.1 µg/mL (≈ 97.9 µM)
Cc1cc(C(=O)Cn2cnc3cc(F)ccc3c2=O)c(C)n1C1CC1 | 0.9 µg/mL (≈ 2.65 µM)
N/C(=N\S(=O)(=O)c1cccs1)c1ccccc1Cl | > 45.1 µg/mL
O=C(Nc1nc2ccccc2[nH]1)c1cccc(Cl)c1 | < 0.2 µg/mL
CCN1CCCC1CNC(=O)C(=O)Nc1ccccc1 (stereo not given) | > 41.3 µg/mL
O=C(O)C1=C(Nc2ccccc2)OCC1=O | > 32.9 µg/mL
CCc1cccc(NS(=O)(=O)c2cccc3cccnc23)c1 | 1 µg/mL (≈ 3.2 µM)
COCCCn1c(=S)[nH]c2sc3c(c2c1=O)CCCC3 | > 46.6 µg/mL
